Assay results from publication PMC4751939, “Antileishmanial Activity of Compounds Derived from the Medicines for Malaria Venture Open Access Box against Intracellular Leishmania major Amastigotes” (The American Journal of Tropical Medicine and Hygiene, 2016).
Like-named read-outs stand apart in the source and are kept apart here.

Assays:
Format in all cases: cell-based
[1] = target: intracellular Leishmania major amastigotes (luciferase-expressing, in RAW 264.7 macrophages); assay: Luciferase-expressing intracellular L. major amastigote-macrophage dose-response assay
Procedure: Macrophages were harvested from culture by removing all spent media, adding in 10 mL of fresh media, scraping adherent macrophages from the culture flask, and counting macrophages using trypan blue. The cells were resuspended at 2.0 × 10^5 cells/mL, and then dispensed in a volume of 50 μL to yield a final concentration of 10,000 macrophages/well in 384-well tissue culture–treated sterile white plates (Nunc/Thermo Fisher, Rochester, NY) using a Tecan EVO Freedom robotics system (Tecan U.S., Durham, NC). The plates were then incubated at 37°C in 5% CO2 atmosphere for 24 hours. After incubation, the media was removed from each well using the Tecan EVO Freedom robot, and 1 × 10^5 transfected L. major promastigotes were added to each well in a volume of 50 μL in DMEM/heat-inactivated fetal bovine serum (HIFBS) media and allowed to invade the macrophages. After overnight incubation, the media was removed from each well using the Tecan Freedom EVO robot, and each well was subsequently washed three times with 40 μL of fresh DMEM/HIFBS medium to remove all extracellular promastigotes. After the third wash, 69.2 μL of DMEM/HIFBS medium was added to each well using the Tecan EVO Freedom robot. Drug plates were prepared with the Tecan EVO Freedom using sterile 96-well plates containing 12 duplicate 2-fold serial dilutions of each test compound suspended in dimethyl sulfoxide (DMSO) for dose–response determinations. Of diluted test compound, 7.8 μL was added to the 69.2 μL media present in each well providing a 10-fold final dilution of compound. The final concentration range tested was 0.0005–1 μM for all assays. The plates were placed in a modular incubator chamber (Billups-Rothenburg, Del Mar, CA) that contained a humidity source, consisting of soaked gauze in a weigh boat, which was placed in the bottom of the chamber. Both valves on the system were opened and using a vent filter (Millipore, Billerica, MA), attached to the one valve, mixed gas containing 5% O2, 5% CO2, and a balance of nitrogen was allowed to pass through the system for 60 seconds. After 60 seconds, the exit valve was closed and the mixed gas was allowed to flow into the chamber for 10 seconds. At that point the remaining valve was closed. Chambers were gassed every other day. The chambers were incubated at 37°C for 96 hours. After 96 hours of incubation, 7.5 μL luciferin solution (Caliper Life Science, Hopkinton, MA) diluted to 150 μg/mL was added to each well, and the plates were incubated for 30 minutes at 37°C in the dark. Each plate was read using an Infinite M200 plate reader (Tecan Inc., Durham, NC).
The 50% inhibitory concentrations (IC50) were then generated for each dose–response test using GraphPad Prism (GraphPad Software Inc., San Diego, CA) using the nonlinear regression (sigmoidal dose–response/variable slope) equation.

[2] = test system: HepG2 cells; assay: MTT cytotoxicity assay; settings: 48-hour incubation
Procedure: (§1) An 3-(4,5-dimethylthiazol-2-yl)-2,5-diphenyltetrazolium bromide (MTT) cytotoxicity counter assay was used to test all compounds from the MMV Malaria Box for cytotoxicity. The 384-well MTT cytotoxicity assay is a modification of the MTT method described by Ferrari and others[29] optimized for 384-well throughput. HepG2 target cells for this assay were cultured in […]. The HepG2 target cells for this assay were cultured as follows: HepG2 cells were cultured in complete Minimal Essential Medium (MEM; catalog no. 11090-099, Gibco-Invitrogen) prepared by supplementing MEM with 0.19% sodium bicarbonate (catalog no. 25080-094, Gibco-BRL), 10% HIFBS (catalog no. 16000-036, Gibco-Invitrogen, Grand Island, NY), 2 mM L-glutamine (catalog no. 25030-081, Gibco-Invitrogen), 0.1 mM MEM nonessential amino acids (catalog no. 11140-050, Gibco-Invitrogen), 0.009 mg/mL insulin (catalog no. I1882, Sigma), 1.76 mg/mL bovine serum albumin (catalog no. A1470, Sigma), 20 units/mL penicillin–streptomycin (catalog no. 15140-148, Gibco-Invitrogen), and 0.05 mg/mL gentamycin (catalog no. 15710-064, Gibco-Invitrogen). HepG2 cells cultured in complete MEM were first washed with 1× Hank's Balanced Salt Solution (catalog no. 14175-095, Invitrogen), trypsinized using a 0.25% trypsin/ethylenediaminetetraacetic acid solution (catalog no. 25200-106, Invitrogen), assessed for viability using trypan blue, and resuspended at 250,000 cells/mL. Drug plates were prepared with the Tecan EVO Freedom using sterile 96-well plates containing 12 duplicate 1.6-fold serial dilutions of each test compound suspended in DMSO. Of diluted test compound, 4.25 μL was then added to the 38.3 μL of media in each well providing a 10-fold final dilution of compound. Compounds were tested from a range of 57 to 10,000 ng/mL for all assays. The 4-azaindolo[2,1-b]quinazoline-6,12-dione was used as a toxicity control. After a 48-hour incubation period, 8 μL of a 1.5 mg/mL solution of MTT diluted in complete MEM media was added to each well. All plates were subsequently incubated in the dark for 1 hour at room temperature. After incubation, the media and drugs in each well was removed by shaking plate over sink, the plates were then left to dry in hood for 15 minutes. Next, 30 μL of isopropanol acidified by addition of hydrochloric acid at a final concentration of 0.36% was added to dissolve the formazan dye crystals created by reduction of MTT. Plates are put on a three-dimensional rotator for 15–30 minutes. Absorbance was determined in all wells using a Tecan icontrol 1.6 Infinite plate reader. The IC50 determinations were then generated for each toxicity dose–response test using GraphPad Prism (GraphPad Software Inc., San Diego, CA) using the nonlinear regression (sigmoidal dose–response/variable slope) equation.

[3] = MTT cytotoxicity assay; settings: human, HepG2 cells, 48-hour incubation
Procedure: as §1

[4] = Leishmania major, RAW264.7, transgenic luciferase expressing intracellular L. major amastigote-macrophage parasites, 96 hours, read-out: Geometric mean L. major IC50 ± SD (n)
[5] = Leishmania major, RAW264.7, MMV Malaria Box L. major hits, intracellular amastigotes, 96 hours, read-out: IC50
[6] = Leishmania major, RAW264.7, rounded values quoted in the discussion, read-out: L. major amastigote-macrophage IC50

Row | Compound | IC50 [1, 5] [µM] | IC50 at 48 h [3] [µM] | also measured
1 | 2-{2-[(4-nitrophenyl)methylidene]hydrazin-1-yl}-1H-1,3-benzodiazole [MMV666023] | – | – | IC50 ([1]; MMV Malaria Box L. major hits, intracellular amastigotes, 96 hours, read-out: IC50): 0.0917 µM; IC50 ([1]; rounded values quoted in the discussion, read-out: L. major amastigote-macrophage IC50): 0.092 µM; IC50 [2]: 1.3 µM
2 | C[C@@H]1[C@H](O)[C@@H](C)/C=C/C=C/C=C/C=C/C=C/C=C/C=C/[C@H](O[C@@H]2O[C@H](C)[C@@H](O)[C@H](N)[C@@H]2O)C[C@@H]2O[C@](O)(C[C@@H](O)C[C@@H](O)[C@H](O)CC[C@@H](O)C[C@@H](O)CC(=O)O[C@H]1C)C[C@H](O)[C@H]2C(=O)O [Amphotericin B, reference compound] | – | – | IC50 [1, 4]: 0.027 ± 0.01 µM
3 | CC(=O)N1CCN(c2ccc(OCC3COC(Cn4ccnc4)(c4ccc(Cl)cc4Cl)O3)cc2)CC1 (stereo not drawn) [Ketoconazole, reference compound] | – | – | IC50 [1, 4]: 19.9 ± 3.9 µM
4 | CCCCCn1c(=N)n(CC(O)COc2cccc(C)c2)c2ccccc21 (stereo not drawn) [MMV000444, 1-(2-imino-3-pentylbenzimidazol-1-yl)-3-(3-methylphenoxy)propan-2-ol] | 0.267 | 4.13 | –
5 | c1ccc(CNc2nc(Nc3ccccc3)nc3ccccc23)cc1 [MMV006169, N-phenyl-N′-(phenylmethyl)quinazoline-2,4-diamine] | 0.467 | 5.66 | –
6 | Cc1ccccc1OCCSc1nc2ccc(NC(=O)c3cccs3)cc2s1 [MMV007396, N-[2-[2-(2-methylphenoxy)ethylsulfanyl]-1,3-benzothiazol-6-yl]thiophene-2-carboxamide] | 0.12 | 3.5 | –
7 | COc1ccc(CCNC(=O)c2cc(S(=O)(=O)N3CC(C)CC(C)C3)ccc2Sc2ccc(F)cc2)cc1OC (stereo not drawn) [MMV007557, N-[2-(3,4-dimethoxyphenyl)ethyl]-5-(3,5-dimethylpiperidin-1-yl)sulfonyl-2-(4-fluorophenyl)sulfanylbenzamide] | 0.18 | > 6.06 | –
8 | Cc1ccc(Cn2c(N3CCC(C(=O)NCc4cccs4)CC3)nc3ccccc32)cc1 [MMV007564, 1-[1-[(4-methylphenyl)methyl]benzimidazol-2-yl]-N-(thiophen-2-ylmethyl)piperidine-4-carboxamide] | 0.0608 | > 6.06 | IC50 [1, 6]: 0.061 µM
9 | CCCCN(CCCC)S(=O)(=O)c1ccc(NC(=O)c2ccco2)cc1 [MMV007881, N-[4-(dibutylsulfamoyl)phenyl]furan-2-carboxamide] | 0.418 | 5.6 | –
10 | Cc1c(C)n(Cc2ccc(F)cc2)c2ccc(C(=O)NCc3ccco3)cc12 [MMV008149, 1-[(4-fluorophenyl)methyl]-N-(furan-2-ylmethyl)-2,3-dimethylindole-5-carboxamide] | 0.229 | 3.26 | –
11 | C[n+]1c2ccccc2nc2ccc(NCCO)cc21 [MMV396693, 2-[(10-methylphenazin-10-ium-2-yl)amino]ethanol] | – | 5.66 | IC50 ([1]; Leishmania major, RAW264.7, 96 h): 0.0534 µM
12 | CCOC(=O)c1cn(CC)c2cc(N3CCCCC3)c(F)cc2c1=O [MMV665827, ethyl 1-ethyl-6-fluoro-4-oxo-7-piperidin-1-ylquinoline-3-carboxylate] | 0.478 | 1.72 | –
13 | COc1ccc(CCN2CCC(CN(C)Cc3cnn(-c4ccccc4)c3)CC2)cc1 [MMV666069] | 0.366 | 5.82 | –
14 | O=C(NC(c1ccccc1)c1ccc2cccnc2c1O)c1ccccc1 (stereo not drawn) [MMV666080, N-[(8-hydroxyquinolin-7-yl)-phenylmethyl]benzamide] | 0.0149 | > 6.06 | IC50 [1, 6]: 0.015 µM
15 | O=[N+]([O-])c1ccc(C=NNc2nc3ccccc3[nH]2)cc1 [MMV666607, 2-{2-[(4-nitrophenyl)methylidene]hydrazin-1-yl}-1H-1,3-benzodiazole] | 0.134 | > 6.06 | IC50 [1, 6]: 0.134 µM
16 | CCOc1ccc(N2C(N)=NC(N)=NC2(C)C)cc1 [MMV667486, 1-(4-ethoxyphenyl)-6,6-dimethyl-1,3,5-triazine-2,4-diamine] | 0.193 | > 6.06 | –
17 | CCCCCCCCCCCCCCCCOP(=O)([O-])OCC[N+](C)(C)C [Miltefosine, reference compound] | – | – | IC50 [1, 4]: 0.55 ± 0.03 µM
18 | NC[C@@H]1O[C@H](O[C@H]2[C@@H](O)[C@H](O[C@@H]3[C@@H](O)[C@H](N)C[C@H](N)[C@H]3O[C@H]3O[C@H](CO)[C@@H](O)[C@H](O)[C@H]3N)O[C@@H]2CO)[C@H](N)[C@@H](O)[C@@H]1O [Paromomycin, reference compound] | – | – | IC50 [1, 4]: 0.78 ± 0.31 µM
19 | N=C(N)c1ccc(OCCCCCOc2ccc(C(=N)N)cc2)cc1 [Pentamidine, reference compound] | – | – | IC50 [1, 4]: 3.42 ± 1.7 µM
20 | O=C(O)[C@@H]1[O][Sb](=[O])([O][Sb]2(=[O])[O][C@H]([C@H](O)CO)[C@H](O)[C@H](C(=O)O)[O]2)[O][C@H]([C@H](O)CO)[C@@H]1O.[Na+].[Na+].[Na+] (stereo partly drawn) [Pentostam, reference compound] | – | – | IC50 ([1]; transgenic luciferase expressing intracellular L. major amastigote-macrophage parasites, 96 hours, read-out: Geometric mean L. major IC50 ± SD (n)): 9.08 ± 0.35 µM
21 | CCN(CC)CCCCCCNc1cc(OC)cc2c(C)ccnc12 [Sitamaquine, reference compound] | – | – | IC50 [1, 4]: 10 ± 0.37 µM
